Results: ChEMBL document CHEMBL4330087, “Synthesis, antimicrobial activity, attenuation of aminoglycoside resistance in MRSA, and ribosomal A-site binding of pyrene-neomycin conjugates” (Eur J Med Chem, 2019)

System: Ribosomal RNA A-site
Assay: Binding affinity to rRNA-A site in human MDA-MB-231 cells assessed as inhibition of protein translation
Assay type: cell-based

## CC/C(=C(\c1ccccc1)c1ccc(OCCN(C)C)cc1)c1ccccc1 [TAMOXIFEN]
  IC50: 18.1 µM
